According to ChEMBL document CHEMBL1129897 (Bioorg Med Chem Lett, 1997):

The compounds below were run against 5-hydroxytryptamine receptor 2A (Rattus norvegicus, UniProt P14842) (assay: Tested in vitro for its ability to inhibit [3H]ketanserin binding to 5-hydroxytryptamine 2A receptor in rat frontal cortex membranes).
5-hydroxytryptamine receptor 2A, sequence (P14842 whole entry): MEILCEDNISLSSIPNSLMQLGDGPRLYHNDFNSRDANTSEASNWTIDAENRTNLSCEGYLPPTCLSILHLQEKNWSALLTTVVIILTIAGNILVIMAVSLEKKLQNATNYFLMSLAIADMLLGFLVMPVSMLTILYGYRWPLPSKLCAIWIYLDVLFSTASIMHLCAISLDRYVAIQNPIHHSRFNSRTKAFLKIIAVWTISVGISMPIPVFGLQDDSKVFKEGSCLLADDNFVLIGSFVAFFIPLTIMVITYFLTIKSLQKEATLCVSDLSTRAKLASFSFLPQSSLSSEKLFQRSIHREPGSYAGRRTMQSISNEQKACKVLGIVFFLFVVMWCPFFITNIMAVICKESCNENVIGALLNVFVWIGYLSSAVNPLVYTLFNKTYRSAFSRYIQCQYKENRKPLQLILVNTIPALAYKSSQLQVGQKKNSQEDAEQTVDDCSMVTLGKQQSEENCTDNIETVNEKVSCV
Type: cell membranes, Membrane
`CCc1c(C)[nH]c2c1C(=O)CC(CN1CCC(C(=O)c3ccc(F)cc3)CC1)C2` (centres undefined) was tested, and the Ki was 0.00617 µM. `CCc1c(C)[nH]c2c1C(=O)CC(CN1CCC(c3noc4cc(F)ccc34)CC1)C2` (centres undefined) was tested, and the Ki was 0.00501 µM. For `CCc1c(C)[nH]c2c1C(=O)CC(CN1CCN(CCCC(=O)c3ccc(F)cc3)CC1)C2` (centres undefined), the Ki was 0.398 µM. With `CCc1c(C)[nH]c2c1C(=O)CC(CN1CCN(c3ccccc3OC)CC1)C2` (centres undefined) the Ki was 0.282 µM.
